Data reported in patent US11066409B2, “Bicyclic nitrogen-containing heterocyclic derivatives and pharmaceutical composition comprising the same” (Shionogi & Co., Ltd., priority 2016, dated 2021).

target: human P2X7 receptor (Homo sapiens (Human), UniProt Q99572, R270H); experiment: Evaluation of a human P2X7 receptor inhibitory activity (Yo-Pro uptake, BzATP stimulation, FLIPR TETRA); type: cell-based; conditions: 1321N1 cells stably expressing human P2X7 receptor, Yo-Pro fluorescence
Experimental: Evaluation of a human P2X7 receptor inhibitory activity Stably expressing cell line (1321N1 cell transfected with the human P2X7 receptor gene (GenBank accession number NM_002562.5 including T606C and G952A SNP)) was used. The cells were seeded in a 384-well microtiter plate at a concentration of 8000 cells/well and cultured in the medium (10% fetal bovine serum, 25 mM HEPES, 1% penicillin and streptomycin in DMEM) for one day at 37° C. under 5% carbon dioxide atmosphere. After replacing with 20 μL of the HBSS buffer (20 mM HEPES, 55.6 mM D-glucose, 1× HBSS(−), pH7.4-7.5), 15 μL of 17.3 μM Yo-Pro solution in the HBSS buffer was added. The plate was placed in high-throughput cellular screening system FLIPR TETRA (Molecullar Devices, LLC.) and 15 μL of 130 μM BzATP solution in the HBSS buffer was added. Measurement of fluorescence intensity by FLIPR TETRA was started. After eight minutes, 15 μL of DMSO solutions containing different concentrations of the compound of the present invention as prepared by dilution with the HBSS buffer were dispensed to each well through the built-in automatic dispenser, and the measurement of fluorescence intensity was continued for 20 minutes. The maximum fluorescence intensity without the compound of the present invention is calculated as 0% inhibition and the maximum fluorescence intensity when the reference compound was added is calculated as 100% inhibition. Changing values of fluorescence intensity by the compound of the present invention were calculated by difference between maximum and minimum fluorescence intensity for 20 minutes. Inhibition ratios (%) were calculated from the following equation:
[formula] IC50 was calculated using logistic approximation.
As for IC50 value, value to below 10 nmol/L is represented as “A”, value from 10 nmol/L to below 100 nmol/L is represented as “B”, value from 100 nmol/L to below 500 nmol/L is represented as “C”, and value from 500 nmol/L to below 1 μmol/L is represented as “D”.

human P2X7 receptor, sequence (Q99572 whole entry R270H): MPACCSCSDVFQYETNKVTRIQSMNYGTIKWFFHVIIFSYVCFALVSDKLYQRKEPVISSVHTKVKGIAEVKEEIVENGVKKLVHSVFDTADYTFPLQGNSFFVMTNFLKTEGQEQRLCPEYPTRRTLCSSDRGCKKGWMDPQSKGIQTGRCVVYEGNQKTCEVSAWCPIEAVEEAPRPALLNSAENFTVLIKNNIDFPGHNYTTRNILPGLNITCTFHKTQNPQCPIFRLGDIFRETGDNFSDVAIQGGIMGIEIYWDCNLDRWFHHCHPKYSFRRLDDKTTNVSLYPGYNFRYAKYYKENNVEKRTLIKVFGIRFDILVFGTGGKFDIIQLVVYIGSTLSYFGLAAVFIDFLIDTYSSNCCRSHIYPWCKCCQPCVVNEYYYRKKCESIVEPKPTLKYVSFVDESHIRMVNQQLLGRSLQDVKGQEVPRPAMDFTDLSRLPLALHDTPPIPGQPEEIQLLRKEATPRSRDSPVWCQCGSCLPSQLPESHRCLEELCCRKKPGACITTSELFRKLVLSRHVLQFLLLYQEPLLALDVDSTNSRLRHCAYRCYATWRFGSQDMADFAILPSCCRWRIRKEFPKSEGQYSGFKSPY

Row | Compound | IC50 [nM]
1 | COc1c2n(c(Nc3cc4sc(C)nc4cc3C)nc1=O)C(c1ccccc1)CC2 (centres unmarked) [Compound I-0032] | 16
2 | Cc1nc2cc(C)c(Nc3nc(=O)cc4n3C(c3ccccc3)CN4)cc2s1 (centres unmarked) [Compound I-0100] | 12
3 | Cc1cc(C)c(Nc2nc(=O)cc3n2C(c2ccccc2)CN3C)cc1C (centres unmarked) [Compound I-0106] | 11

same assay, conditions: 1321N1 cells stably expressing human P2X7 receptor, Yo-Pro fluorescence, class symbols

Row | Compound | IC50 [nM]
4 | COc1ccc(NC2=NC(=O)N(C)C3=NCC(c4cc(F)cc(F)c4)N23)c(C)n1 (centres unmarked) [Compound I-0144] | 10 to 100
5 | COc1nc(C)c(Nc2nc(=O)cc3n2C(c2ccc(F)c(Cl)c2)CC3)cc1F (centres unmarked) [Compound I-0094] | 10 to 100
6 | Cc1ccc(C(F)(F)CO)cc1NC1=NC(=O)N(C)C2=NCC(c3cc(F)c(F)c(F)c3)N12 (centres unmarked) [Compound I-0206] | 10 to 100
7 | COc1ccc(Nc2nc(=O)cc3n2C(c2cccc(Cl)c2)CC3)c(C)c1 (centres unmarked) [Compound I-0050] | < 10
8 | CCOc1ccc(/N=c2\[nH]c(=O)c(F)c3n2C(c2ccc(F)cc2)CC3)c(C)n1 (centres unmarked) [Compound I-0080] | < 10
9 | Cc1ccc(C)c(NC2=NC(=O)N(C)C3=NCC(Cc4ccccc4)N23)c1 (centres unmarked) [Compound I-0177] | 100 to 500
10 | CN1C(=O)N=C(NCc2ccccc2F)N2C1=NCC2c1cc(F)c(F)c(F)c1 (centres unmarked) [Compound I-0196] | 10 to 100
11 | Cc1nc2cc(C)c(NC3=NC(=O)N(C)C4=NCC(c5cc(F)c(F)c(F)c5)N34)cc2s1 (centres unmarked) [Compound I-0156] | 10 to 100
12 | COc1cc(C)c(Nc2nc(=O)cc3n2C(c2ccc(F)c(F)c2)CC3)cc1OC (centres unmarked) [Compound I-0025] | 10 to 100
13 | COc1cc(C)c(Nc2nc(=O)cc3n2C(c2cc(F)c(F)c(F)c2)CC3)cc1OC (centres unmarked) [Compound I-0021] | 10 to 100
14 | CCOc1ccc(Nc2nc(=O)c(F)c3n2C(c2cc(F)cc(F)c2)CC3)c(CC)n1 (centres unmarked) [Compound I-0096] | 10 to 100
15 | Cc1ccc(CC(F)(F)CO)cc1NC1=NC(=O)N(C)C2=NCC(c3cc(F)c(F)c(F)c3)N12 (centres unmarked) [Compound I-0184] | 10 to 100
16 | COc1ccc(Nc2nc(=O)cc3n2C(c2cc(F)c(F)c(F)c2)CC3)c(C)c1 (centres unmarked) [Compound I-0042] | < 10
17 | COc1ccc(Nc2nc(=O)cc3n2C(c2cc(F)cc(F)c2)CC3)c(C)n1 (centres unmarked) [Compound I-0047] | 10 to 100
18 | COc1ccc(C)c(Nc2nc(=O)c(F)c3n2C(c2cc(F)cc(F)c2)CC3)c1 (centres unmarked) [Compound I-0098] | < 10
19 | COCC(F)(F)c1ccc(C)c(NC2=NC(=O)N(C)C3=NCC(c4cc(F)c(F)c(F)c4)N23)c1 (centres unmarked) [Compound I-0205] | 10 to 100
20 | Cc1ccc(CCCO)cc1NC1=NC(=O)N(C)C2=NCC(c3cc(F)c(F)c(F)c3)N12 (centres unmarked) [Compound I-0181] | 10 to 100
21 | COc1nc(C)c(Nc2nc(=O)cc3n2C(c2cc(F)c(F)c(F)c2)CC3)cc1F (centres unmarked) [Compound I-0090] | 10 to 100
22 | Cc1cc(F)c(C2=NCCO2)cc1NC1=NC(=O)N(C)C2=NCC(c3cc(F)c(F)c(F)c3)N12 (centres unmarked) [Compound I-0214] | 10 to 100
23 | COc1cc(C)c(Nc2nc(=O)c(OC)c3n2C(c2ccccc2)CC3)cc1C (centres unmarked) [Compound I-0031] | 10 to 100
24 | COc1cnc(C)c(Nc2nc(=O)cc3n2C(c2cc(F)cc(F)c2)CC3)c1 (centres unmarked) [Compound I-0071] | 10 to 100
25 | COc1ccc(Nc2nc(=O)c(F)c3n2C(c2ccccc2)CC3)c(C)c1 (centres unmarked) [Compound I-0046] | 10 to 100

Row | Compound | IC50 [nM]
26 | Cc1ccc(C2=NCCO2)cc1NC1=NC(=O)N(C)C2=NCC(c3cc(F)c(F)c(F)c3)N12 (centres unmarked) [Compound I-0213] | 10 to 100
27 | COc1cc(NC2=NC(=O)N(C)C3=NCC(c4cc(F)c(F)c(F)c4)N23)c(C)nc1OC (centres unmarked) [Compound I-0167] | 100 to 500
28 | COc1cc(Nc2nc(=O)c(OC)c3n2C(c2ccccc2)CC3)c(C)cc1Cl (centres unmarked) [Compound I-0044] | 10 to 100
29 | COc1ccc(Nc2nc(=O)c(F)c3n2C(c2cc(F)cc(F)c2)CC3)c(C)c1 (centres unmarked) [Compound I-0097] | < 10
30 | CCN1C(=O)N=C(Nc2cc(C)c(C)cc2C)N2C1=NCC2c1ccccc1 (centres unmarked) [Compound I-0111] | < 10
31 | COc1ccc([C@@H](C)NC2=NC(=O)N(C)C3=NCC(c4cc(F)c(F)c(F)c4)N23)cc1 (some centres unmarked) [Compound I-0207] | 100 to 500
32 | CCc1ccc(CO)cc1NC1=NC(=O)N(C)C2=NCC(Cc3ccccc3)N12 (centres unmarked) [Compound I-0183] | 100 to 500
33 | COc1ccc(Nc2nc(=O)cc3n2C(c2cc(F)c(F)c(F)c2)CC3)c(C)n1 (centres unmarked) [Compound I-0048] | 10 to 100
34 | Cc1c(Cl)cccc1Nc1nc(=O)cc2n1C(c1ccccc1)CCO2 (centres unmarked) [Compound I-0006] | 10 to 100
35 | COc1cc(C)c(Nc2nc(=O)cc3n2C(c2ccccc2)CC3)cc1C (centres unmarked) [Compound I-0020] | < 10
36 | COc1ccc(NC2=NC(=O)N(C)C3=NCC(c4cc(F)c(F)c(F)c4)N23)c(C)n1 (centres unmarked) [Compound I-0143] | 10 to 100
37 | COc1cc(C)c(Nc2nc(=O)cc3n2C(c2ccc(F)c(Cl)c2)CC3)cc1OC (centres unmarked) [Compound I-0013] | < 10
38 | Cc1cc(F)c(OCCO)cc1NC1=NC(=O)N(C)C2=NCC(c3cc(F)c(F)c(F)c3)N12 (centres unmarked) [Compound I-0172] | 10 to 100
39 | COc1ccc(C)c(/N=c2\[nH]c(=O)cc3n2C(c2cc(F)cc(F)c2)CC3)c1 (centres unmarked) [Compound I-0061] | 10 to 100
40 | Cc1nc2cc(C)c(/N=c3\[nH]c(=O)c(F)c4n3C(c3ccc(F)cc3)CC4)cc2s1 (centres unmarked) [Compound I-0054] | < 10
41 | CN1C(=O)N=C(NCc2ccc(F)cc2)N2C1=NCC2c1cc(F)c(F)c(F)c1 (centres unmarked) [Compound I-0198] | 10 to 100
42 | Cc1ncc(CO)cc1NC1=NC(=O)N(C)C2=NCC(c3cc(F)c(F)c(F)c3)N12 (centres unmarked) [Compound I-0175] | 10 to 100
43 | Cc1ccc(CO)cc1NC1=NC(=O)NC2=NCC(c3cc(F)c(F)c(F)c3)N21 (centres unmarked) [Compound I-0178] | 10 to 100
44 | COc1cc(C)c(Nc2nc(=O)cc3n2C(c2ccccc2)CC3)cc1Cl (centres unmarked) [Compound I-0028] | < 10
45 | Cc1cc(OC(F)F)ccc1Nc1nc(=O)cc2n1C(c1ccc(F)cc1)CC2 (centres unmarked) [Compound I-0077] | < 10
46 | CCN1C(=O)N=C(Nc2ccc(OC)cc2C)N2C1=NCC2c1ccc(F)cc1 (centres unmarked) [Compound I-0140] | 10 to 100
47 | CCN1C(=O)N=C(Nc2cc(OC)c(OC)cc2C)N2C1=NCC2c1ccc(F)cc1 (centres unmarked) [Compound I-0138] | 10 to 100

Row | Compound | IC50 [nM]
48 | COc1ccc(Nc2nc(=O)c(F)c3n2C(c2ccc(F)cc2F)CC3)c(C)c1 (centres unmarked) [Compound I-0064] | 10 to 100
49 | COc1ccc(Nc2nc(=O)cc3n2C(c2ccccc2)CC3)cc1OC (centres unmarked) [Compound I-0019] | < 10
50 | CCOc1ccc(/N=c2\[nH]c(=O)c(F)c3n2C(c2ccc(F)cc2F)CC3)c(CC)n1 (centres unmarked) [Compound I-0076] | 10 to 100
51 | COc1cc(C)c(NC2=NC(=O)N(C)C3=NCC(c4ccc(F)cc4)N23)cc1OC (centres unmarked) [Compound I-0121] | 10 to 100
52 | COc1ccc(C)c(Nc2nc(=O)cc3n2C(c2ccccc2)CN3C)c1 (centres unmarked) [Compound I-0105] | 10 to 100
53 | COc1ccc(Nc2nc(=O)c(OC)c3n2C(c2ccccc2)CC3)c(C)c1 (centres unmarked) [Compound I-0052] | 10 to 100
54 | Cc1cc2c(cc1Nc1nc(=O)cc3n1C(c1cc(F)cc(F)c1)CC3)COC2 (centres unmarked) [Compound I-0066] | < 10
55 | Cc1cc(Nc2nc(=O)cc3n2C(c2ccccc2)CC3)c(C)cc1Cl (centres unmarked) [Compound I-0011] | < 10
56 | COc1cc(C)c(Nc2nc(=O)cc3n2C(c2ccccc2)CC3)cn1 (centres unmarked) [Compound I-0030] | 100 to 500
57 | Cc1[nH]c(=O)c(F)cc1Nc1nc(=O)cc2n1C(c1ccc(F)cc1F)CC2 (centres unmarked) [Compound I-0088] | 500 to 1000
58 | Cc1ccc(NC2=NC(=O)N(C)C3=NCC(c4ccc(F)cc4)N23)c(C)n1 (centres unmarked) [Compound I-0120] | 100 to 500
59 | COc1ccc(C)c(NC2=NC(=O)N(C)C3=NCC(c4cc(F)cc(F)c4)N23)c1 (centres unmarked) [Compound I-0131] | 10 to 100
60 | COCCOc1ccc(C)c(NC2=NC(=O)N(C)C3=NCC(Cc4ccccc4)N23)c1 (centres unmarked) [Compound I-0169] | 10 to 100
61 | Cc1c(Cl)cccc1Nc1nc(=O)cc2n1C(c1ccccc1)CC2 (centres unmarked) [Compound I-0007] | < 10
62 | Cc1cc(F)c(C#N)cc1NC1=NC(=O)N(C)C2=NCC(c3cc(F)c(F)c(F)c3)N12 (centres unmarked) [Compound I-0211] | 10 to 100
63 | CCOc1ccc(Nc2nc(=O)cc3n2C(c2cc(F)cc(F)c2)CC3)c(C)n1 (centres unmarked) [Compound I-0055] | 10 to 100
64 | COc1ccc(/N=c2\[nH]c(=O)c(F)c3n2C(c2ccc(F)cc2F)CC3)c(C)n1 (centres unmarked) [Compound I-0068] | 10 to 100
65 | Cc1c(Cl)cccc1Nc1nc(=O)cc2n1C(c1ccccc1)CO2 (centres unmarked) [Compound I-0002] | < 10
66 | Cc1c(F)cc(C#N)cc1NC1=NC(=O)N(C)C2=NCC(c3cc(F)c(F)c(F)c3)N12 (centres unmarked) [Compound I-0212] | 10 to 100
67 | COc1ccc(Nc2nc(=O)c(F)c3n2C(c2ccc(F)cc2)CN3C)c(C)n1 (centres unmarked) [Compound I-0160] | 10 to 100
68 | COc1nc(C)c(NC2=NC(=O)N(C)C3=NCC(c4cc(F)c(F)c(F)c4)N23)cc1CO (centres unmarked) [Compound I-0182] | 10 to 100
